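Assay format: 96-well plates, 48-hour exposure. The concentration for 50% growth inhibition is given as GI50. TGI denotes the concentration required for complete inhibition of growth.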 Where a SMILES comes first, the peptide text is derived from it. The star is where a group is joined. Cbz = O=C(OCc1ccccc1)*; Bn = c1ccc(C*)cc1 A value given as a limit tells only on which side of the number the result lay.

Among the test systems are BT-549 breast; DU-145 prostate; HS 578T breast; MDA-N; DMS 114 small cell lung; DMS 273 small cell lung; LXFL 529 NSCLC; RXF-631 renal; SNB-78 CNS; XF 498 CNS; 786-0 renal; M19-MEL melanoma; P388 leukemia; P388/ADR leukemia; SN12K1 renal.
Common to all, as to assay: NCI tumour cell line growth inhibition, 48 h

Take `COC(=O)C(Cc1ccc(O)cc1)NC(=O)C(COCc1ccccc1)NC(=O)OCc1ccccc1` (centres undefined) (Cbz-Ser(Bn)-Tyr-OMe; configuration not given here): the TGI was over 100 µM with BT-549 breast, 31.8 µM with DU-145 prostate, 53 µM with HS 578T breast and 31.4 µM with MDA-N.
The matching figures for `C1CSCCSCSCCS1`: over 100 µM, over 100 µM, over 100 µM and over 100 µM.
On to `CC1C[C@]2(C[C@@H](C)C(=O)O2)OC2CC3(C)C4CCC5C(C)(C)OC(=O)CC[C@@]56C[C@@]46CC[C@]3(C)C12` (some centres undefined), for which the TGI in the assay with DMS 114 small cell lung, in the assay with DMS 273 small cell lung, with LXFL 529 NSCLC, in the assay with RXF-631 renal, in the assay on SNB-78 CNS and in the assay on XF 498 CNS was over 100 µM throughout.
Regarding `NC(CCP(=O)(O)O)C(=O)O` (centres undefined), the TGI in the assay with 786-0 renal, in the assay on BT-549 breast, in the assay with HS 578T breast and in the assay with MDA-N was over 100 µM each time.
`CS(=O)(=O)c1ccc2nc(-c3ccc(O)cc3)sc2c1`: the TGI in the assay on BT-549 breast worked out at 30.5 µM; in the assay with DU-145 prostate it was 29.6 µM; in the assay with MDA-N, 34.4 µM.
On to `O=S(=O)(O)c1ccc2c(N=Nc3ccc(S(=O)(=O)O)c4ccccc34)c(O)c(S(=O)(=O)O)cc2c1`, for which the TGI in the assay on 786-0 renal, in the assay with BT-549 breast, in the assay on DU-145 prostate, with HS 578T breast and in the assay on MDA-N was over 100 µM throughout.
Take `O=C(Nc1ccc(Cl)cc1)c1cc([N+](=O)[O-])ccc1O`: the TGI in the assay on 786-0 renal is over 46.8 µM; in the assay with DMS 114 small cell lung it was 6.75 µM; in the assay on DMS 273 small cell lung it was 20 µM; in the assay on LXFL 529 NSCLC, 16.8 µM; in the assay with M19-MEL melanoma, 23.5 µM; in the assay with RXF-631 renal it was over 45.7 µM. The same molecule came in with a TGI in the assay on XF 498 CNS of 8.72 µM.
With `O=[N+]([O-])c1cc(N=Nc2c(O)ccc3cc(S(=O)(=O)O)ccc23)c(O)c([N+](=O)[O-])c1`, the TGI in the assay on 786-0 renal, with BT-549 breast, in the assay on DU-145 prostate, in the assay with HS 578T breast and with MDA-N was over 100 µM each time.
As for `CCCCSCC(NC(=O)/C=C/c1c(C)[nH]c(=O)[nH]c1=O)C(=O)OC` (centres undefined), the TGI with DMS 114 small cell lung was 271 µM; with DMS 273 small cell lung, 264 µM; in the assay on M19-MEL melanoma, 191 µM; with P388 leukemia it was 137 µM; in the assay on P388/ADR leukemia, over 450 µM; with SN12K1 renal, 173 µM. The molecule further came in with a TGI in the assay on SNB-78 CNS of 303 µM.
`c1ccc(-c2n(Cc3ccc4ccccc4c3)c3ccccc3[n+]2Cc2ccc3ccccc3c2)cc1`: in the assay with DU-145 prostate, the GI50 was 0.441 µM and the TGI is 1.64 µM.
As for `COc1ccc(-c2oc3cc(OC(C)=O)cc(OC(C)=O)c3c(=O)c2OC)cc1`, the TGI stood at 45.2 µM in the assay on DU-145 prostate and 28.3 µM in the assay on MDA-N.
With `O=C1c2cccc(O)c2C(=O)c2c(O)cccc21`, the TGI in the assay on 786-0 renal is over 100 µM; with DMS 114 small cell lung, over 100 µM; in the assay with DMS 273 small cell lung it was over 100 µM; in the assay with LXFL 529 NSCLC it was over 100 µM; in the assay with M19-MEL melanoma, 24.3 µM; in the assay on SNB-78 CNS, over 100 µM. In the assay with XF 498 CNS, this molecule yielded a TGI of over 100 µM.
For the molecule `C[n+]1c2ccccc2c(CNCC(=O)O)c2ccccc21`, the TGI stood at 2.58 µM with 786-0 renal; 4.83 µM with DMS 114 small cell lung; 2.74 µM in the assay with DMS 273 small cell lung; 3.15 µM in the assay on LXFL 529 NSCLC; 16.5 µM in the assay on M19-MEL melanoma; 44.3 µM in the assay with SNB-78 CNS. The same molecule yielded a TGI in the assay with XF 498 CNS of 3.85 µM.
With `CC(=O)OCC1OC(NC(=O)N(CCCl)N=O)C(OC(C)=O)C(OC(C)=O)C1OC(C)=O` (centres undefined), the TGI in the assay with DMS 114 small cell lung, in the assay on DMS 273 small cell lung, in the assay with M19-MEL melanoma, in the assay on P388 leukemia, in the assay on P388/ADR leukemia and in the assay with SN12K1 renal was over 100 µM each time. In addition, the TGI with SNB-78 CNS and in the assay with XF 498 CNS was over 100 µM in each case.
For `NC(=O)c1ccc([N+](=O)[O-])cc1`, the TGI in the assay with 786-0 renal, in the assay with DMS 114 small cell lung, in the assay with DMS 273 small cell lung, in the assay on LXFL 529 NSCLC, with M19-MEL melanoma and in the assay with RXF-631 renal was over 100 µM each time. Further, the TGI with SNB-78 CNS and in the assay on XF 498 CNS was over 100 µM each time.
For `C=CCNC1=C2C[C@@H](C)C[C@H](OC)[C@H](O)[C@@H](C)/C=C(\C)[C@H](OC(N)=O)[C@@H](OC)/C=C\C=C(/C)C(=O)NC(=CC1=O)C2=O`, the TGI amounted to 58.3 µM with 786-0 renal; 31.1 µM in the assay on BT-549 breast; 7.33 µM with DU-145 prostate; 47.5 µM with HS 578T breast; 15 µM in the assay with MDA-N.
On to `COc1ccc2c(c1)C(OC)C1c3c(cc4c(c3-2)OCO4)CCN1C` (centres undefined), for which the TGI in the assay on 786-0 renal is over 40.9 µM; in the assay on BT-549 breast, 8.48 µM; in the assay on DU-145 prostate, over 52 µM; in the assay on HS 578T breast, 5.35 µM; in the assay on MDA-N, 12 µM.
Turning to `N=C(N)c1ccc(-c2ccc(-c3ccc4ccccc4c3)s2)s1`, the GI50 in the assay with BT-549 breast was 17.6 µM; in the assay with DU-145 prostate, 1.83 µM; with HS 578T breast, 2.07 µM. For the same molecule, the TGI with BT-549 breast was found to be 46.8 µM; in the assay on DU-145 prostate, 3.44 µM; in the assay with HS 578T breast it was 4.71 µM.
Turning to `CCn1c(=O)c(C(=O)O)c(Cl)c2cc3c(cc21)OCO3`, the TGI in the assay on DMS 273 small cell lung, in the assay with M19-MEL melanoma, in the assay with P388 leukemia, with P388/ADR leukemia, in the assay with SN12K1 renal and with SNB-78 CNS was over 100 µM each time. In the assay with XF 498 CNS, this molecule displayed a TGI of over 100 µM.
On to `C[P+](c1ccccc1)(c1ccc(Cl)cc1)c1ccc(Cl)cc1`, for which the TGI in the assay with 786-0 renal is over 100 µM; in the assay with BT-549 breast, 68.3 µM; in the assay on DU-145 prostate, 94.6 µM; in the assay on HS 578T breast it was 78.2 µM.
Take `COc1ccc(N2C(=O)/C(=C\c3ccccc3)SC2c2cc(OC)c(OC)c(OC)c2)cc1` (centres undefined): the TGI in the assay on BT-549 breast is over 100 µM; with HS 578T breast it was over 100 µM; with MDA-N, 44.8 µM.

The values are drawn from PubChem BioAssay (NCI).
